The nature of data set [1]: Genotoxicity in Salmonella typhimurium TA98 assessed as mutagenic index at 2.5 ug by AMES test. The data set is classed as toxicity, Salmonella enterica subsp. enterica serovar Typhimurium. The following applies: in vivo; dose 2.5 µg.
Data set [2] in a line: Genotoxicity in Salmonella typhimurium TA98 assessed as number of revertant at 2.5 ug by AMES test (reference value: 8 to 8.3). The data set is classed as toxicity, Salmonella enterica subsp. enterica serovar Typhimurium. The settings on record: in vivo; dose 2.5 µg.

The structures appear in SMILES notation.

Take `Nc1ccc([N+](=O)[O-])cc1N`: in data set [1], the Activity_index was determined as 62.3. For the same compound, in data set [2], the Activity is listed as 519.

The record behind these values is ChEMBL document CHEMBL4725268, “Anticonvulsant and analgesic in neuropathic pain activity in a group of new aminoalkanol derivatives” (Bioorg Med Chem Lett, 2020).
